Measurements as given in US10563263B2, “Genetic polymorphisms associated with statin response and cardiovascular diseases, methods of detection and uses thereof” (CELERA CORPORATION, priority 2010, dated 2020).

Tested on: revascularization, unstable angina requiring hospitalization, MI, all causes of death, or stroke
Test: PROVE IT-TIMI 22: SNP by treatment interaction (high-dose atorvastatin vs standard-dose pravastatin), logistic regression (synergy index), primary composite endpoint
Assay type: in vivo, human
Details: atorvastatin vs pravastatin; for OR (SNP by treatment interaction, logistic regression): PROVE-IT; for OR: PROVEIT

CC(C)c1c(C(=O)Nc2ccccc2)c(-c2ccccc2)c(-c2ccc(F)cc2)n1CC[C@@H](O)C[C@@H](O)CC(=O)O [Atorvastatin, atorvastatin]
OR (SNP by treatment interaction, logistic regression) (rs992695, Imputed, allele C (A1), model DOM, NMISS 442): 1.216 | OR (SNP by treatment interaction, logistic regression) (rs9866421, Genotyped, allele C (A1), model REC, NMISS 443): 0.5895 | OR (SNP by treatment interaction, logistic regression) (rs9881685, Imputed, allele A (A1), model ADD, NMISS 440): 1.041 | OR (SNP by treatment interaction, logistic regression) (rs9881685, Imputed, allele A (A1), model DOM, NMISS 440): 1.041 | OR (SNP by treatment interaction, logistic regression) (rs9936999, Imputed, allele G (A1), model DOM, NMISS 266): 0.7758 | OR (marker rs2574, cohort, model rec, End-point CVD): 1.62 | OR (marker rs7508, caseonly, model dom, End-point CHD): 1.65 | OR (marker rs198464, cohort, model rec, End-point CHD): 1.44 | OR (marker rs198476, caseonly, model rec, End-point CHD): 1.85 | OR (marker rs264122, cohort, model dom, End-point CHD): 0.72 | OR (marker rs271046, caseonly, model rec, End-point CVD): 0.68 | OR (marker rs494111, caseonly, model rec, End-point CHD): 0.44 | OR (marker rs498657, caseonly, model add, End-point CHD): 1.57 | OR (marker rs619825, caseonly, model rec, End-point CHD): 0.40 | OR (marker rs646749, caseonly, model rec, End-point CHD): 0.40 | OR (marker rs694780, caseonly, model rec, End-point CHD): 0.40 | OR (marker rs892162, caseonly, model rec, End-point CHD): 0.64 | OR (marker rs974950, cohort, model dom, End-point CVD): 0.64 | OR (marker rs996022, caseonly, model rec, End-point CHD): 0.41 | OR (marker rs1003322, caseonly, model dom, End-point CHD): 1.41 | OR (marker rs1009748, cohort, model add, End-point CVD): 1.43 | OR (marker rs1136046, caseonly, model add, End-point CVD): 1.48 | OR (marker rs1190706, cohort, model dom, End-point CVD): 0.76 | OR (marker rs1266489, cohort, model dom, End-point CVD): 0.67 | OR (marker rs1336400, cohort, model dom, End-point CHD): 1.46 | OR (marker rs1344081, caseonly, model dom, End-point CVD): 1.31 | OR (marker rs1450092, caseonly, model add, End-point CHD): 0.81 | OR (marker rs1524962, caseonly, model add, End-point CHD): 0.80 | OR (marker rs1566221, cohort, model add, End-point CHD): 0.68 | OR (marker rs1727746, cohort, model dom, End-point CVD): 1.30 | OR (marker rs1798093, cohort, model rec, End-point CHD): 2.00 | OR (marker rs1942876, caseonly, model rec, End-point CHD): 0.41 | OR (marker rs2011318, caseonly, model add, End-point CHD): 0.63 | OR (marker rs2060022, caseonly, model rec, End-point CVD): 0.72 | OR (marker rs2108425, cohort, model dom, End-point CHD): 0.77 | OR (marker rs2110564, cohort, model dom, End-point CVD): 0.60 | OR (marker rs2113334, caseonly, model rec, End-point CVD): 0.29 | OR (marker rs2327412, cohort, model add, End-point CVD): 1.38 | OR (marker rs2505039, cohort, model add, End-point CHD): 0.84 | OR (marker rs2588350, cohort, model add, End-point CVD): 0.82 | OR (marker rs2648694, cohort, model rec, End-point CVD): 1.72 | OR (marker rs2655222, caseonly, model rec, End-point CHD): 0.23 | OR (marker rs2657940, caseonly, model add, End-point CHD): 1.20 | OR (marker rs2993156, caseonly, model dom, End-point CVD): 0.75 | OR (marker rs3763978, cohort, model add, End-point CVD): 0.84 | OR (marker rs4038018, caseonly, model dom, End-point CHD): 0.76 | OR (marker rs4240808, caseonly, model rec, End-point CVD): 0.56 | OR (marker rs4242281, caseonly, model rec, End-point CVD): 2.08 | OR (marker rs4420312, caseonly, model dom, End-point CHD): 0.59 | OR (marker rs4472926, caseonly, model dom, End-point CHD): 0.53 | OR (marker rs4660234, cohort, model dom, End-point CHD): 1.45 | OR (marker rs4787415, caseonly, model rec, End-point CHD): 0.62 | OR (marker rs4807536, caseonly, model dom, End-point CVD): 1.53 | OR (marker rs4836745, caseonly, model dom, End-point CVD): 0.65 | OR (marker rs4870109, caseonly, model rec, End-point CVD): 1.97 | OR (marker rs6427807, cohort, model dom, End-point CVD): 0.66 | OR (marker rs6539231, caseonly, model dom, End-point CVD): 0.68 | OR (marker rs6563805, caseonly, model add, End-point CHD): 0.53 | OR (marker rs6585412, cohort, model dom, End-point CVD): 1.39 | OR (marker rs6685920, cohort, model dom, End-point CVD): 1.45 | OR (marker rs6998016, caseonly, model rec, End-point CHD): 6.19 | OR (marker rs7018577, caseonly, model dom, End-point CHD): 1.44 | OR (marker rs7070244, caseonly, model add, End-point CVD): 1.30 | OR (marker rs7078016, cohort, model dom, End-point CVD): 1.41 | OR (marker rs7222186, caseonly, model dom, End-point CHD): 0.50 | OR (marker rs7276749, cohort, model dom, End-point CVD): 0.45 | OR (marker rs7332076, caseonly, model rec, End-point CVD): 2.40 | OR (marker rs7338174, caseonly, model dom, End-point CHD): 2.50 | OR (marker rs7449527, caseonly, model dom, End-point CHD): 1.53 | OR (marker rs7710039, caseonly, model dom, End-point CVD): 0.70 | OR (marker rs7839562, caseonly, model dom, End-point CHD): 1.54 | OR (marker rs7916629, caseonly, model rec, End-point CVD): 2.11 | OR (marker rs7918692, caseonly, model dom, End-point CVD): 1.48 | OR (marker rs7959965, caseonly, model add, End-point CVD): 0.74 | OR (marker rs8129810, cohort, model dom, End-point CVD): 0.45 | OR (marker rs9478241, caseonly, model rec, End-point CVD): 2.08 | OR (marker rs9914580, caseonly, model dom, End-point CHD): 0.51 | OR (marker rs10012485, cohort, model dom, End-point CVD): 0.54 | OR (marker rs10497883, caseonly, model add, End-point CHD): 0.68 | OR (marker rs10518335, caseonly, model dom, End-point CVD): 0.55 | OR (marker rs10774580, caseonly, model dom, End-point CHD): 0.63 | OR (marker rs10945874, cohort, model add, End-point CVD): 1.72 | OR (marker rs11138314, cohort, model add, End-point CHD): 0.64 | OR (marker rs11585647, caseonly, model dom, End-point CVD): 0.49 | OR (marker rs11721179, caseonly, model dom, End-point CVD): 0.64 | OR (marker rs11734256, cohort, model rec, End-point CVD): 0.57 | OR (marker rs12048902, caseonly, model add, End-point CVD): 0.72 | OR (marker rs12341095, cohort, model rec, End-point CHD): 1.63 | OR (marker rs12646525, cohort, model dom, End-point CVD): 0.59 | OR (marker rs12679254, caseonly, model dom, End-point CVD): 0.79 | OR (marker rs12817873, cohort, model add, End-point CVD): 0.85 | OR (marker rs13107334, cohort, model dom, End-point CVD): 0.53 | OR (marker rs13126170, caseonly, model dom, End-point CVD): 0.53
